According to US20070185431A1, “Galvanic Current Skin Treatment” (priority 2006, published 2007):
“Also recorded” adds a separate entry of the source.

What was measured:
[1] = cited from earlier work
[2] = Franz cell skin penetration of the other compounds with and without current (Phoresor)
From the text: Thus, for a 1% theobromine solution, a Tris-glycine buffer at pH 12 was chosen. […] By putting theobromine into 0.1N NaOH at pH 12, this compound is ionized to a negative charge. No information was readily available regarding the pKa of Ergothioneine (Thiotaine) but based on its structure, it would appear to have a relatively low pKa and thus be negatively charged at pH 8.0.
For experiments, the electrodes from the Phoresor were applied to the Franz unit with the negative electrode in contact with the skin's surface and in contact with the compound solution being applied. Each compound was tested on 5 skins for skin penetration without current and 5 skins for skin penetration with current.
Note that the time=0 for the bar graphs discussed below represents the time at which the galvanic current was terminated.
A 60 microliter solution of aminophylline in PBS (pH 7.0) gelled slightly with 0.5% HEC was applied to human breast skin mounted in Franz cell chambers. A 0.4 mAmp current was applied for either 6.25 minutes (for a 2.5 mAmp×time dose) or 12.5 minutes to produce a 5 mAmp×time dose. At 6 hours samples were withdrawn for analysis and a second dose applied only to the skin receiving a 2.5 mAmp×time pulse at T=0. Samples were withdrawn for analysis at T=12 hours and again at T=24 hours.
Thus, its rate of dissociation is not going to be high in an aqueous solvent. in order to shift the equilibrium to the anion form of theobromine we prepared a 1% solution in Tris-glycine buffer adjusted to pH 12 with IN NaOH. Franz studies were then carried out using a 2.5 mAmp×time pulse.

[3] = Skin penetration of caffeine in modified Franz cells with galvanic current application device; assay type: in vitro ADME, human
From the text: According to one embodiment, another method and apparatus relates to a modified Franz cell instrument and method of testing iontophoresis across a cellular membrane and the effects of an electrical current on the membrane after the electrical current has been removed. […] In this embodiment, a electrical current application device 18 is operably coupled to the Franz cell via a copper wire that connects the two electrodes of the device 18 to the Franz cell. In this embodiment, the negative electrode 16 contacts the surface of the cellular membrane via a copper wafer electrode while the positive electrode 14 is placed in the lower Franz fluid reservoir 12 to complete the circuit. Alternatively, any configuration that allows for application of an electrical current to the cellular membrane placed in the Franz cell is contemplated. According to one embodiment, the apparatus as set forth in FIG. 2 can be used to test the effects of applying electrical current to a cellular membrane.
To perform this examination, three modified Franz cells—each similar to the apparatus depicted in FIG. 2—were placed in series. […] As is understood in the art, 1 milliamp equals 1,000 microamps.
To determine the effectiveness of the current application device in enhancing the penetration of caffeine through human skin, a 1% caffeine solution was prepared in saline solution at a pH of 7.2 and an infinite dose (500 micro liters) applied to the surface of human skin mounted onto Franz cell units. One set of skin samples was left untreated to serve as the control group for passive skin penetration of caffeine. A second set was treated with one 3 minute cycle of the Galvanic unit delivering 120 microamps per skin. The standard convention for expressing the current “dose” the skin receives is Current×Time. Thus, the skin in this group received 360 microamp-minutes of current (120 microamps×3 minutes). A third group of skins were treated with 3 cycles of current (1080 microamp-minutes [shown as 1.1 mA]), and the fourth group received a dose of 4.32 mAmp-minutes (12 cycles at 3 minutes/cycle delivering 120 microamps).
Samples were collected at 6, 12 and 24 hours and the amount of caffeine present in the receptor fluid determined by HPLC.

[4] = Skin penetration of caffeine in Franz cells with iontophoretic instrument, pre-selected current dose; assay type: in vitro ADME, human
Description: For the first studies, Franz cells were dosed once with either: 1) no current (control), 2) 2 mAmp-minutes, 3) 5 mAmp-minutes, or 4)10 mAmp-minutes. Samples of the Franz receptor fluid were analyzed at 6, 12 and 24 hours after the current dose.
Because a consumer might use this product morning and evening, we separated the dose treatments by 10 hours. The experimental protocol involved applying a saline solution of 1% caffeine (pH 7.2) to human skins mounted in Franz cells. The groups were: 1) control-no dosing, 2) a dose of 2.5 mAmp-minute (0.375 mAmps for 6.67 minutes) repeated at 10 hours, and 3) a single 5 mAmp-minute. All groups contained 5 replicates. For these studies, the caffeine was only applied to the skin during the dosing phase. When a second current application was applied to the 2.5 mAmp-minute group at 10 hours, not only was the caffeine solution added to these skin samples, but it was also placed on the 5 mAmp-minute skins even though these were not treated again with current. This controlled for any skin penetration simply due to the presence of the caffeine solution on the skin. After dosing was completed any remaining caffeine solution was removed from the skin.
Because of the long duration of these studies, dosing was usually initiated at 7:00 am and 6 hours later the first samples were collected for analysis. At T=10 hours (5 pm) a second sample was collected and the 2.5 mAmp-minute group dosed a second time. At T=16 hours (11:00 pm) another sample was collected from the lower reservoir, and at T=24 the final samples were collected.
For this study, the caffeine solution was not removed from skins immediately after dosing but left on the skin for the duration of the experiment.
We conducted dose-response studies to begin to answer this question. For these studies, skins were dosed only once with either 0.6, 1.3, 2.5 or 5 mAmp-minutes with the current held constant at 375 uamps, the maximum output of the Galvanic unit. To each skin 400 microliters of a 1% caffeine in saline solution was applied. In order to minimize evaporation during the study, the caffeine solution was gelled slightly with hydroxyethylcellulose. Six hours after dosing, samples from the lower receptor fluid were collected and analyzed for caffeine.

[5] = cited from earlier work; remark: listed apart in the source

SMILES: NC(=O)NCCC[C@H](N)C(=O)O [Citrulline]
- pKa [1]: 9.4

SMILES: C[N+](C)(C)[C@@H](Cc1c[nH]c(=S)[nH]1)C(=O)[O-] [Thiotaine, Ergothioneine]
- skin penetration to lower chamber reservoir without current ([2]; no current, 24 hours): no compound had penetrated the skin
- relative skin permeability among the compounds studied ([2]; simple buffer systems): least permeable
- levels in the lower reservoir with current ([2]; single dose of 2.5 mAmp×time, 12 and 24 hours): measurable Thiotaine levels in the lower reservoir

SMILES: Cn1c(=O)c2[nH]cnc2n(C)c1=O [aminophylline]
- increase in skin flux [2]: only a modest increase in skin flux
- skin penetration enhancement, FIG. 9A [2]: produced enhanced skin penetration
- skin penetration without current [2]: relatively high skin penetration
- enhancement in skin penetration over control values, extrapolated ([2]; human, 1 %): 23%
- enhancement in skin penetration, extrapolated ([2]; human, 1 %): 9%
- increase in skin penetration ([2]; human, 24 h, 1 %): approximately 1.7 fold
- skin penetration: two treatments of 2.5 mAmp×time versus single 5 mAmp×time pulse ([2]; human, 24 h, 1 %, pH 7): did not equal the skin penetration seen with a single 5 amp×time pulse
- pKa [1]: 5.0

SMILES: Cn1c(=O)c2c(ncn2C)n(C)c1=O [caffeine]
- penetration enhancement of caffeine through the skin ([3]; 1 cycle (360 microamp-minutes)): ineffective in causing any detectable penetration enhancement
- penetration enhancement of caffeine compared to control ([3]; 3 cycles (1080 microamp-minutes), 24 hours): some marginal enhancement of penetration; also recorded: some small enhancement in skin penetration
- penetration enhancement of caffeine through human skin ([3]; 6 cycles (2.2 mAmp-minutes), 24 hours): did enhance delivery of caffeine
- amount of caffeine that had penetrated skin relative to control group ([3]; 12 cycles (4.32 mAmp-minutes), 24 hours, 1% caffeine in saline pH 7.2): 6 times
- time at which increase in skin penetration was detectable ([3]; 12 cycles (4.32 mAmps-min)): ≤ 6 h
- skin penetration: two 2.5 mAmp-minute doses versus one dose [4]: significantly more skin penetration of caffeine than one dose
- increase in the penetration of caffeine ([4]; 2 mAmp-minute dose, 6 hours after treatment): 1.5 fold
- time post-dosing at which penetration enhancement was detectable ([4]; 2.5 and 5 mAmp-minute groups, caffeine removed after dosing): ≤ 6 h
- increase in the amount of caffeine penetrating the skin ([4]; 5 mAmp-minute dose, 6 hours): 3 fold
- amount of caffeine present in the receptor as fraction of applied dose ([4]; 5 mAmp-minute dose, 24 hours): 4 % of applied dose
- time after dosing at which enhanced penetration can be detected ([4]; 5 mAmp-minute dose, caffeine solution left on skin): ≤ 3 h
- increase in the amount of caffeine penetrating the skin ([4]; 10 mAmp-minute dose, 6 hours): 4 fold
- amount of caffeine penetrated: 2.5 mAmp-minute dosed twice versus 5 mAmp-minute dosed once ([4]; 24 hours): no significant difference; also recorded: as much caffeine penetration as a single 5 mAmp-minute dose
- effect of a second 5 mAmp-minute dose versus a single 5 mAmp-minute dose ([4]; 24 hours, caffeine left on skin): no additional accumulation of caffeine; also recorded: does not appear to significantly enhance caffeine skin penetration
- caffeine in the receptor without current ([4]; control skins, no current, 3 hours): no presence of caffeine in the receptor
- time after dosing at which skin penetration enhancement can be detected ([4]; single 2.5 mAmp-minute dose): ≤ 3 h
- skin penetration enhancement ([4]; single dose of 0.6 mAmp-minutes at 375 uamps, 6 hours, gelled 1% caffeine): will enhance skin penetration
- current level above which maximal skin penetration occurs (sigmoidal fit) ([4]; single dose, 6 hours): 3-5 mAmp-minutes
- penetration enhancement of single 2.5 mAmp-minute dose relative to single 5 mAmp-minute dose ([4]; single doses): about 50%

SMILES: CCOC(=O)c1cccnc1 [ethyl nicotinate]
- skin penetration enhancement [2]: enhanced skin penetration
- time after application at which compound is detectable in the lower reservoir fluid ([2]; human, 1 %): ≤ 2 h
- time at which enhanced effect of current is detectable ([2]; human, 1 %): about 4 hour
- amount of compound in the receptor fluid ([2]; human, 24 h, 1 %): over 1000 micrograms

SMILES: Cn1cnc2c1c(=O)[nH]c(=O)n2C [theobromine]
- skin penetration from the solvent used ([2]; pH 12): relatively poorly
- pKa [1]: 9.9
- solubility [5]: virtually insoluble in any solvent except dilute alkali; also recorded: essentially insoluble in any solvent other than alkali
